Our source for the EC50 values is US20090275574A1, “NOVEL COMPOUNDS-300” (ASTRAZENECA AB, priority 2008, published 2009).

pEC50: −log10 of the molar value. A value given as a limit tells only on which side of the number the result lay.

This experiment has as its target T1, hM5 (human Muscarinic receptor subtype 5) (Homo sapiens, UniProt P08912).
T1 construct: expressed in transfected cells; host or cells: CHO cells (ATCC)
T1 sequence (P08912 1-532): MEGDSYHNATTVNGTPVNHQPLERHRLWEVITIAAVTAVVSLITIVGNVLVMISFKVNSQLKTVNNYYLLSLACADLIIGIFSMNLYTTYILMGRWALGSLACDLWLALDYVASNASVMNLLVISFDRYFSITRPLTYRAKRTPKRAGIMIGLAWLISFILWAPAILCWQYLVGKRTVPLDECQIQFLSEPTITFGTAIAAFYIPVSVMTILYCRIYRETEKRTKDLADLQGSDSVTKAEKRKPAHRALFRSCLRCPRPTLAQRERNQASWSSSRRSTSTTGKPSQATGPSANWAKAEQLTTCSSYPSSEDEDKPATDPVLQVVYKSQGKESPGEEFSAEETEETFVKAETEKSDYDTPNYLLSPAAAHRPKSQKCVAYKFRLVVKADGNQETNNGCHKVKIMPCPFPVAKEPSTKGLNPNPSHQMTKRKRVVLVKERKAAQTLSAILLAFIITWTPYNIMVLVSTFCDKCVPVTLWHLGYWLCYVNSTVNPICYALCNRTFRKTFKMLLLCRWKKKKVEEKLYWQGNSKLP
The experiment is described as follows: Human M5 calcium mobilization FLIPR assay. The class given is cell-based. Particulars: hM5 expressed in CHO cells, intracellular Ca2+ release (FLIPR). The protocol:
Human M1, rat M1, Human M3 and Human M5 Calcium Mobilization FLIPR™ Assay The compound activity in the present invention (EC50 or IC50) is measured using a 384 plate-based imaging assay that monitors drug induced intracellular Ca^2+ release in whole cells. Activation of hM1 (human Muscarinic receptor subtype 1, gene bank access NM_000738), rM1 (rat Muscarinic receptor subtype 1, gene bank access NM_080773), hM3 (human Muscarinic receptor subtype 3, gene bank access NM_000740NM_000740) and hM5 (human Muscarinic receptor subtype 5, gene bank access NM_0121258), receptors expressed in CHO cells (Chinese hamster ovary cells, ATCC) is quantified in a Molecular Devices FLIPR IITM instrument as an increase in fluorescent signal. Inhibition of hM3 and hM5 by compounds is determined by the decrease in fluorescent signal in response to 2 nM acetylcholine activation. […] Prior to experiment, the cell culture medium is removed from the plates by inversion. […] Plates are incubated at 37° C. for 60 minutes prior to start the experiment. The incubation is terminated by washing the cells four times in assay buffer, leaving a residual 25 μl buffer per well. Cell plates are then transferred to the FLIPR, ready for compound additions. The day of experiment, acetylcholine and compounds are diluted in assay buffer in three-fold concentration range (10 points serial dilution) for addition by FLIPR instrument. For all calcium assays, a baseline reading is taken for 10 seconds followed by the addition of 12.5 μl of compounds, resulting in a total well volume of 37.5 μl. Data is collected every second for 60 pictures and then every 6 seconds for 20 pictures prior to the addition of agonist. For hM3 and hM5, before agonist addition, a second baseline reading is taken for 10 seconds followed by the addition of 12.5 μl of agonist or buffer, producing a final volume of 50 μl. After agonist stimulation, the FLIPR continues to collect data every second for 60 pictures and then every 6 seconds for 20 pictures. The fluorescence emission is read using filter 1 (emission 510-570 nm) by the FLIPR on board CCD camera. Calcium mobilization output data are calculated as the maximal relative fluorescence unit (RFU) minus the minimal value for both compound and agonist reading frame (except for hM1 and rM1 using only the maximal RFU). Data are analyzed using sigmoidal fits of a non-linear curve-fitting program (XLfit version 4.2.2 Excel add-in version 4.2.2 build 18 math 1Q version 2.1.2 build 18). All pEC50 and pIC50 values are reported as arithmetic means±standard error of mean of ‘n’ independent experiments.
For orientation: pEC50 means the negative decadic logarithm of the EC50, by convention in mol/L. For the compound `CCOCC1CCC(N2CCC(N3C(=O)NC[C@H]4CCCC[C@@H]43)CC2)CC1` (mixture of isomers) [Example 08, (4aR,8aS)-1-(1-(4-(ethoxymethyl)cyclohexyl)piperidin-4-yl)octahydroquinazolin-2(1H)-one], the negative-log EC50 (pEC50) was 7.16.

As to `CC(C)OCC1CCC(N2CCC(N3C(=O)CO[C@H]4CCCC[C@@H]43)CC2)CC1` (mixture of isomers) [Example 15, (4aS,8aS)-4-(1-(4-(isopropoxymethyl)cyclohexyl)piperidin-4-yl)hexahydro-2H-benzo[b][1,4]oxazin-3(4H)-one], the negative logarithm of the EC50 (pEC50) is below 4.40. As to `CCCOCC1CCC(N2CCC(N3C(=O)NC[C@H]4CCCC[C@@H]43)CC2)CC1` (single isomer, unassigned) [Example 01], the pEC50 was below 4.40.

Take `CCCOCC1CCC(N2CCC(N3C(=O)NC[C@H]4CCCC[C@@H]43)CC2)CC1` (single isomer, unassigned) [Example 02]: the negative logarithm of the EC50 (pEC50) is below 5.56. On to `CC(C)OCC1CCC(N2CCC(N3C(=O)NC[C@H]4CCCC[C@@H]43)CC2)CC1` (single isomer, unassigned) [Example 04], for which the negative-log EC50 (pEC50) is below 4.40. The value for `CCOCC1CCC(N2CCC(N3C(=O)CO[C@H]4CCCC[C@@H]43)CC2)CC1` (single isomer, unassigned) [Example 13] was below 4.40.

Regarding `CCOCC1CCC(N2CCC(N3C(=O)CO[C@H]4CCCC[C@@H]43)CC2)CC1` (single isomer, unassigned) [Example 14], the pEC50 was below 4.40. Consider `CC(C)OCC1CCC(N2CCC(N3C(=O)CO[C@H]4CCCC[C@@H]43)CC2)CC1` (single isomer, unassigned) [Example 18], for which the negative-log EC50 (pEC50) was below 4.40. The value for `CC(C)OCC1CCC(N2CCC(N3C(=O)CO[C@H]4CCCC[C@@H]43)CC2)CC1` (single isomer, unassigned) [Example 19] was below 4.40; that for `O=C1CO[C@H]2CCCC[C@@H]2N1C1CCN(C2CCC(COCCF)CC2)CC1` (single isomer, unassigned) [Example 24] was below 4.40; that for `O=C1CO[C@H]2CCCC[C@@H]2N1C1CCN(C2CCC(COCCF)CC2)CC1` (single isomer, unassigned) [Example 25] was below 4.40.

On to `O=C1CO[C@H]2CCCC[C@@H]2N1C1CCN(C2CCC(COCC(F)F)CC2)CC1` (single isomer, unassigned) [Example 26], for which the negative logarithm of the EC50 (pEC50) was below 4.40. The value for `O=C1CO[C@H]2CCCC[C@@H]2N1C1CCN(C2CCC(COCC(F)F)CC2)CC1` (single isomer, unassigned) [Example 27] was below 4.40; that for `CC(C)OCC1CCC(N2CCC(N3C(=O)CO[C@H]4CCC(F)(F)C[C@@H]43)CC2)CC1` (single isomer, unassigned) [Example 37] was below 4.40.

As for `CC(C)OCC1CCC(N2CCC(N3C(=O)CO[C@H]4CCC(F)(F)C[C@@H]43)CC2)CC1` (single isomer, unassigned) [Example 38], the negative-log EC50 (pEC50) was below 4.40. The value for `CCOCC1CC(N2CCC(N3C(=O)CO[C@H]4CCCC[C@@H]43)CC2)C1` (single isomer, unassigned) [Example 39] was below 4.40.

On to `CCOCC1CCC(N2CCC(N3C(=O)CO[C@H]4CCCC[C@@H]43)CC2)C1` (single isomer, unassigned) [Example 44], for which the pEC50 was 5.53. For the compound `CCOCC1CCC(N2CCC(N3C(=O)CO[C@H]4CCCC[C@@H]43)CC2)C1` (single isomer, unassigned) [Example 45], the negative-log EC50 (pEC50) was below 4.40.

For `O=C1COC2CCCC2N1C1CCN([C@H]2CC[C@@H](COCC3CC3)CC2)CC1` (single isomer, unassigned) [Example 48], the negative-log EC50 (pEC50) was below 4.40. Regarding `O=C1NC[C@H]2CCCC[C@@H]2N1C1CCN(C2CCC(COCC(F)F)CC2)CC1` (single isomer, unassigned) [Example 51], the pEC50 was below 4.80. The value for `CCOC[C@H]1CC[C@@H](N2CCC(N3C(=O)CO[C@H]4CCCC[C@@H]43)CC2)C1` [Example 42, (4aS,8aS)-4-(1-((1R,3S)-3-(ethoxymethyl)cyclopentyl)piperidin-4-yl)hexahydro-2H-benzo[b][1,4]oxazin-3(4H)-one] was below 5.37; that for `CCOC[C@@H]1CC[C@H](N2CCC(N3C(=O)CO[C@H]4CCCC[C@@H]43)CC2)C1` [Example 43, (4aS,8aS)-4-(1-((1S,3R)-3-(ethoxymethyl)cyclopentyl)piperidin-4-yl)hexahydro-2H-benzo[b][1,4]oxazin-3(4H)-one] was below 4.40.
